{"source": "paper PMC4589357", "about": "“The Role of Electrostatic Interactions in Binding of Histone H3K4me2/3 to the Sgf29 Tandem Tudor Domain” (PLoS ONE, 2015)", "key": {"[1]": {"target": "T1, Sgf29 D266Y (Homo sapiens, UniProt Q96ES7, D266Y)", "T1 construct": "6xHis (cleaved yes); made in house; host or cells: E. coli Rosetta BL21 DE3 PlysS", "T1 sequence (Q96ES7 115-293 D266Y)": "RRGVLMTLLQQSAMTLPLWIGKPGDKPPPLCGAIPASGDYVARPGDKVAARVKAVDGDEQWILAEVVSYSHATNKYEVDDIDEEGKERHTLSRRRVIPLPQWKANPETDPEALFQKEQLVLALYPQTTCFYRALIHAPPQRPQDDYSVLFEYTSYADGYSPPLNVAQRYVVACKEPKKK", "experiment": "ITC binding of histone peptides to Sgf29 D266Y"}, "[2]": {"target": "T2, Sgf29 D266W (Homo sapiens, UniProt Q96ES7, D266W)", "T2 construct": "6xHis (cleaved yes); made in house; host or cells: E. coli Rosetta BL21 DE3 PlysS", "T2 sequence (Q96ES7 115-293 D266W)": "T1 sequence (Q96ES7 115-293 D266Y) with Y152W", "experiment": "ITC binding of histone peptides to Sgf29 D266W"}, "[3]": {"target": "T3, Sgf29 Y245F (Homo sapiens, UniProt Q96ES7, Y245F)", "T3 construct": "6xHis (cleaved yes); made in house; host or cells: E. coli Rosetta BL21 DE3 PlysS", "T3 sequence (Q96ES7 115-293 Y245F)": "T1 sequence (Q96ES7 115-293 D266Y) with Y131F, Y152D", "experiment": "ITC binding of histone peptides to Sgf29 Y245F"}, "[4]": {"target": "T4, Sgf29 D266F (Homo sapiens, UniProt Q96ES7, D266F)", "T4 construct": "6xHis (cleaved yes); made in house; host or cells: E. coli Rosetta BL21 DE3 PlysS", "T4 sequence (Q96ES7 115-293 D266F)": "T1 sequence (Q96ES7 115-293 D266Y) with Y152F", "experiment": "ITC binding of histone peptides to Sgf29 D266F"}, "[5]": {"target": "T5, Sgf29 D266N (Homo sapiens, UniProt Q96ES7, D266N)", "T5 construct": "6xHis (cleaved yes); made in house; host or cells: E. coli Rosetta BL21 DE3 PlysS", "T5 sequence (Q96ES7 115-293 D266N)": "T1 sequence (Q96ES7 115-293 D266Y) with Y152N", "experiment": "ITC binding of histone peptides to Sgf29 D266N"}, "[6]": {"target": "T6, Sgf29 Y238F (Homo sapiens, UniProt Q96ES7, Y238F)", "T6 construct": "6xHis (cleaved yes); made in house; host or cells: E. coli Rosetta BL21 DE3 PlysS", "T6 sequence (Q96ES7 115-293 Y238F)": "T1 sequence (Q96ES7 115-293 D266Y) with Y124F, Y152D", "experiment": "ITC binding of histone peptides to Sgf29 Y238F"}, "[7]": {"target": "T7, tandem tudor domain of Sgf29, WT (Homo sapiens, UniProt Q96ES7)", "T7 construct": "6xHis (cleaved yes); made in house; host or cells: E. coli Rosetta BL21 DE3 PlysS", "T7 sequence (Q96ES7 115-293)": "T1 sequence (Q96ES7 115-293 D266Y) with Y152D", "experiment": "ITC binding of histone peptides to WT Sgf29"}, "[8]": {"target": "T8, Sgf29 D266E (Homo sapiens, UniProt Q96ES7, D266E)", "T8 construct": "6xHis (cleaved yes); made in house; host or cells: E. coli Rosetta BL21 DE3 PlysS", "T8 sequence (Q96ES7 115-293 D266E)": "T1 sequence (Q96ES7 115-293 D266Y) with Y152E", "experiment": "ITC binding of histone peptides to Sgf29 D266E"}, "[9]": {"target": "T9, Sgf29 D266A (Homo sapiens, UniProt Q96ES7, D266A)", "T9 construct": "6xHis (cleaved yes); made in house; host or cells: E. coli Rosetta BL21 DE3 PlysS", "T9 sequence (Q96ES7 115-293 D266A)": "T1 sequence (Q96ES7 115-293 D266Y) with Y152A", "experiment": "ITC binding of histone peptides to Sgf29 D266A"}, "[10]": {"conditions": "D266Y, TRIS pH 8.0, ± SD (2–4 repeats)"}, "[11]": {"conditions": "Y245F, TRIS pH 8.0, ± SD (2–4 repeats)"}, "[12]": {"conditions": "D266F, TRIS pH 8.0, ± SD (2–4 repeats)"}, "[13]": {"conditions": "D266N, TRIS pH 8.0, ± SD (2–4 repeats)"}, "[14]": {"conditions": "Y238F, TRIS pH 8.0, ± SD (2–4 repeats)"}, "[15]": {"conditions": "WT Sgf29, TRIS pH 8.0, ± SD (2–4 repeats)"}, "[16]": {"conditions": "D266E, TRIS pH 8.0, ± SD (2–4 repeats)"}, "[17]": {"conditions": "D266A, TRIS pH 8.0, ± SD (2–4 repeats)"}}, "note": "Substitutions are numbered along the chain they refer to. Where “and” joins values, the source holds several entries; their conditions need not be identical. Equal entries are not always repeated.", "data": [{"smiles": "C[C@H](N)C(=O)N[C@@H](CCCNC(=N)N)C(=O)N[C@H](C(=O)N[C@@H](CCCC[N+](C)(C)C)C(=O)N[C@@H](CCC(N)=O)C(=O)N[C@H](C(=O)N[C@@H](C)C(=O)N[C@@H](CCCNC(=N)N)C(=O)N[C@@H](CCCCN)C(=O)N[C@@H](CO)C(N)=O)[C@@H](C)O)[C@@H](C)O", "note": "[H3K4me3]", "values": [{"measurement": "decrease in enthalpy", "setting": "[1]; D266Y relative to WT Sgf29", "result": 3.3, "unit": "kcal/mol"}, {"measurement": "increase in entropy", "setting": "[1]; D266Y relative to WT Sgf29", "result": "about 2.1 kcal mol^-1"}, {"measurement": "-TΔS°", "setting": "[1]; [10]", "result": "-1.4 ± 0.3", "unit": "kcal/mol"}, {"measurement": "ΔG°", "setting": "[1]; [10]", "result": "-6.2 ± 0.1", "unit": "kcal/mol"}, {"measurement": "ΔH°", "setting": "[1]; [10]", "result": "-4.8 ± 0.2", "unit": "kcal/mol"}, {"measurement": "binding (in words)", "setting": "[2]", "result": "abrogated"}, {"measurement": "reduced binding affinity", "setting": "[3]; Y245F relative to WT Sgf29", "result": 4.5, "unit": "fold"}, {"measurement": "-TΔS°", "setting": "[3]; [11]", "result": "-0.7 ± 0.1", "unit": "kcal/mol"}, {"measurement": "ΔG°", "setting": "[3]; [11]", "result": "-6.6 ± 0.1", "unit": "kcal/mol"}, {"measurement": "ΔH°", "setting": "[3]; [11]", "result": "-5.9 ± 0.1", "unit": "kcal/mol"}, {"measurement": "decrease in ΔH°", "setting": "[4]; D266F relative to WT Sgf29", "result": 4.6, "unit": "kcal/mol"}, {"measurement": "more favorable -TΔS° (difference)", "setting": "[4]; D266F relative to WT Sgf29", "result": 3.1, "unit": "kcal/mol"}, {"measurement": "reduction in binding affinity", "setting": "[4]; D266F relative to WT Sgf29", "result": 14, "unit": "fold"}, {"measurement": "-TΔS°", "setting": "[4]; [12]", "result": "-2.5 ± 0.1", "unit": "kcal/mol"}, {"measurement": "ΔG°", "setting": "[4]; [12]", "result": "-5.9 ± 0.1", "unit": "kcal/mol"}, {"measurement": "ΔH°", "setting": "[4]; [12]", "result": "-3.4 ± 0.2", "unit": "kcal/mol"}, {"measurement": "decrease in binding affinity", "setting": "[5]; D266N relative to WT Sgf29", "result": 8, "unit": "fold"}, {"measurement": "increase in entropy / -TΔS°", "setting": "[5]; D266N relative to WT Sgf29", "result": 0.7, "unit": "kcal/mol"}, {"measurement": "-TΔS°", "setting": "[5]; [13]", "result": "-0.1 ± 0.1", "unit": "kcal/mol"}, {"measurement": "ΔG°", "setting": "[5]; [13]", "result": "-6.3 kcal/mol and -6.3 ± 0.1 kcal/mol"}, {"measurement": "ΔH°", "setting": "[5]; [13]", "result": "-6.2 ± 0.1", "unit": "kcal/mol"}, {"measurement": "thermodynamic profile (in words)", "setting": "[6]; Y238F variants with altered or similar CD spectra, compared to WT Sgf29", "result": "indistinguishable thermodynamic profiles"}, {"measurement": "-TΔS°", "setting": "[6]; [14]", "result": "0.7 ± 0.1", "unit": "kcal/mol"}, {"measurement": "ΔG°", "setting": "[6]; [14]", "result": "-7.4 ± 0.1", "unit": "kcal/mol"}, {"measurement": "ΔH°", "setting": "[6]; [14]", "result": "-8.1 ± 0.1", "unit": "kcal/mol"}, {"measurement": "-TΔS° less favorable relative to Sgf29-H3K4me2, by", "setting": "[7]; H3K4me3 vs H3K4me2, WT Sgf29", "result": 0.7, "unit": "kcal/mol"}, {"measurement": "ΔH° more favorable relative to Sgf29-H3K4me2, by", "setting": "[7]; H3K4me3 vs H3K4me2, WT Sgf29", "result": 0.9, "unit": "kcal/mol"}, {"measurement": "-TΔS°", "setting": "[7]; [15]", "result": "0.6 kcal/mol and 0.6 ± 0.2 kcal/mol"}, {"measurement": "ΔG°", "setting": "[7]; [15]", "result": "-7.5 ± 0.1", "unit": "kcal/mol"}, {"measurement": "ΔH°", "setting": "[7]; [15]", "result": "-8.1 kcal/mol and -8.1 ± 0.2 kcal/mol"}, {"measurement": "binding affinity (in words)", "setting": "[8]; D266E relative to WT Sgf29", "result": "virtually indistinguishable binding affinities"}, {"measurement": "-TΔS°", "setting": "[8]; [16]", "result": "1.6 ± 0.1", "unit": "kcal/mol"}, {"measurement": "ΔG°", "setting": "[8]; [16]", "result": "-7.4 ± 0.1", "unit": "kcal/mol"}, {"measurement": "ΔH°", "setting": "[8]; [16]", "result": "-9.0 ± 0.1", "unit": "kcal/mol"}, {"measurement": "more unfavorable ΔH° (difference)", "setting": "[9]; D266A relative to WT Sgf29", "result": 1.7, "unit": "kcal/mol"}, {"measurement": "reduction in binding affinity", "setting": "[9]; D266A relative to WT Sgf29", "result": 8, "unit": "fold"}, {"measurement": "-TΔS°", "setting": "[9]; [17]", "result": "0.1 ± 0.1", "unit": "kcal/mol"}, {"measurement": "ΔG°", "setting": "[9]; [17]", "result": "-6.3 ± 0.1", "unit": "kcal/mol"}, {"measurement": "ΔH°", "setting": "[9]; [17]", "result": "-6.4 ± 0.1", "unit": "kcal/mol"}]}]}
